Values of other authors in patent EP4756025A1, “DSRNA TARGETING MAPT AND PHARMACEUTICAL USE THEREOF” (Tuojie Biotech (Shanghai) Co., Ltd., priority 2023, dated 2025).

Conditions: octanol-water partition coefficient, example in the definition of lipophilic moiety

logKow	SMILES
about 0.7	NCCCCCCO [6-aminohexanol]
10.7	CC(C)CCC[C@@H](C)[C@H]1CC[C@H]2[C@@H]3CC=C4C[C@@H](OC(=O)NCCCCCCO)CC[C@]4(C)[C@H]3CC[C@]12C [cholesteryl N-(hexan-6-ol)carbamate]
